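Where inhibition never reached the appropriate level, the endpoint shown equals the highest concentration tested. Otherwise, values were interpolated linearly from a five-concentration, 48-hour dose response in 96-well plates. Here, GI50 denotes the concentration required for 50% inhibition of growth. Definition used: TGI = concentration required for complete inhibition of growth.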
Key:
Experiment in all cases: inhibition of tumour cell growth, NCI panel, 48 h
RXF 393 renal = tested on: RXF 393 renal
OVCAR-3 ovarian = tested on: OVCAR-3 ovarian
MCF7 breast = tested on: MCF7 breast
OVCAR-8 ovarian = tested on: OVCAR-8 ovarian
SR leukemia = tested on: SR leukemia
SK-OV-3 ovarian = tested on: SK-OV-3 ovarian
NCI/ADR-RES ovarian = tested on: NCI/ADR-RES ovarian
HT29 colon = tested on: HT29 colon
A549 NSCLC = tested on: A549 NSCLC
CCRF-CEM leukemia = tested on: CCRF-CEM leukemia
NCI-H522 lung = tested on: NCI-H522 lung
KM12 colon = tested on: KM12 colon
IGROV1 ovarian = tested on: IGROV1 ovarian
A498 renal = tested on: A498 renal
HCT-15 colon = tested on: HCT-15 colon
EKVX NSCLC = tested on: EKVX NSCLC
BT-549 breast = tested on: BT-549 breast
SK-MEL-5 melanoma = tested on: SK-MEL-5 melanoma
UACC-257 melanoma = tested on: UACC-257 melanoma
SK-MEL-28 melanoma = tested on: SK-MEL-28 melanoma
PC-3 prostate = tested on: PC-3 prostate
ACHN renal = tested on: ACHN renal
HS 578T breast = tested on: HS 578T breast
SF-539 CNS = tested on: SF-539 CNS
SF-268 CNS = tested on: SF-268 CNS
K-562 leukemia = tested on: K-562 leukemia
MALME-3M melanoma = tested on: MALME-3M melanoma

O=S(=O)(Nc1ccc(-c2nc(-c3cccc(O)c3)c(-c3ccnc(Br)c3)[nH]2)cc1)c1ccccc1
GI50 (RXF 393 renal): 1.93 µM | TGI (RXF 393 renal): 4.36 µM | GI50 (OVCAR-3 ovarian): 2.07 µM | TGI (OVCAR-3 ovarian): 4.82 µM | GI50 (MCF7 breast): 2.3 µM | TGI (MCF7 breast): 7.3 µM | GI50 (OVCAR-8 ovarian): 2.84 µM | TGI (OVCAR-8 ovarian): 9.74 µM | GI50 (SR leukemia): 2.29 µM | TGI (SR leukemia): > 100 µM | GI50 (SK-OV-3 ovarian): 2.76 µM | TGI (SK-OV-3 ovarian): 7.34 µM | GI50 (NCI/ADR-RES ovarian): 3.04 µM | TGI (NCI/ADR-RES ovarian): 32 µM | GI50 (HT29 colon): 3.17 µM | TGI (HT29 colon): 18.3 µM | GI50 (A549 NSCLC): 3 µM | TGI (A549 NSCLC): 33.1 µM | GI50 (CCRF-CEM leukemia): 1.91 µM | TGI (CCRF-CEM leukemia): > 100 µM | GI50 (NCI-H522 lung): 2.48 µM | TGI (NCI-H522 lung): 9.95 µM | GI50 (KM12 colon): 2.32 µM | TGI (KM12 colon): 5.99 µM | GI50 (IGROV1 ovarian): 2.88 µM | TGI (IGROV1 ovarian): 11.3 µM | GI50 (A498 renal): 0.364 µM | TGI (A498 renal): 3.67 µM | GI50 (HCT-15 colon): 1.97 µM | TGI (HCT-15 colon): 4.76 µM | GI50 (EKVX NSCLC): 2.55 µM | TGI (EKVX NSCLC): 8.09 µM | GI50 (BT-549 breast): 2.49 µM | TGI (BT-549 breast): 6.76 µM | GI50 (SK-MEL-5 melanoma): 2.4 µM | TGI (SK-MEL-5 melanoma): 5.82 µM | GI50 (UACC-257 melanoma): 2.53 µM | TGI (UACC-257 melanoma): 7.15 µM | GI50 (SK-MEL-28 melanoma): 2.86 µM | TGI (SK-MEL-28 melanoma): 9.36 µM | GI50 (PC-3 prostate): 2.12 µM | TGI (PC-3 prostate): 6.82 µM | GI50 (ACHN renal): 2.55 µM | TGI (ACHN renal): 6.96 µM | GI50 (HS 578T breast): 1.5 µM | TGI (HS 578T breast): 4.39 µM | GI50 (SF-539 CNS): 2.01 µM | TGI (SF-539 CNS): 4.75 µM | GI50 (SF-268 CNS): 3.18 µM | TGI (SF-268 CNS): 13.7 µM | GI50 (K-562 leukemia): 2.27 µM | TGI (K-562 leukemia): > 100 µM | GI50 (MALME-3M melanoma): 2.1 µM | TGI (MALME-3M melanoma): 6.89 µM

Reference: PubChem BioAssay (NCI)
